Results published in patent US20100137232A1 (priority 2004, published 2010).

Key:
[1] = cited from earlier work
[2] = humans, cited from earlier work
[3] = in vivo
Excerpt: In the specification, the terms ‘eye-acceptable’ and ‘acceptable to the eye’ (as well as similar terms) are intended to mean that no lachrymatory effect is seen and/or no irritation of, and/or damage to, the surface of the eye (cornea) and/or the surrounds of the eye (the lids, tear ducts etc.) and/or the deeper structures within the eye (lens, muscles etc.).

stromal proteins = conditions: cited from earlier work

SMILES	solubility in chloroform ([1]; chloroform)	solubility in diluted (50%) alcohol ([1]; diluted (50%) alcohol)	solubility in ether ([1]; ether)	solubility in pyridine ([1]; pyridine)	solubility in water ([1]; water)	bioavailability ([2]; calculated from an oral dosage form)	half-life ([2]; oral dosage form) [h]	maximum concentration which is acceptable in and to the eye [3] [v/v %]	toxic effect on stromal proteins (stromal proteins)
C[C@H]1O[C@@H](O[C@H]2[C@@H](O)C[C@H](O[C@H]3[C@@H](O)C[C@H](O[C@H]4CC[C@@]5(C)[C@H](CC[C@@H]6[C@@H]5C[C@@H](O)[C@]5(C)[C@@H](C7=CC(=O)OC7)CC[C@]65O)C4)O[C@@H]3C)O[C@@H]2C)C[C@H](O)[C@@H]1O [Digoxin]	slightly soluble	slightly soluble	practically insoluble	freely soluble	practically insoluble	about 80%	42	–	–
CCO [ethanol]	–	–	–	–	–	–	–	2.5	direct toxic effect
